Data published in patent US10364247B2, “Preparation and use of novel protein kinase inhibitors” (Ruijin Hospital Affiliated to Shanghai Jiao Tong University …, priority 2015, dated 2019).

Legend:
Type in all cases: cell-based, murine
[1] = molecular target: T1, BaF3-BCR/ABL (Homo sapiens, UniProt P00519); test: Antiproliferative activity, kinase-dependent Ba/F3 cells (MTT/MTS); conditions: 48 hours, cell viability, read-out: BCR/ABL IC50
T1 construct: fused on or other part: P11274 (Breakpoint cluster region protein)
Description: (§1) Following up on the kinome data, the ability of compounds disclosed in the present invention to inhibit proliferation of cells that are dependent on selected protein kinases was tested. […] In addition, compounds were assayed to measure their capacity to inhibit TIE1, LYN, EML4-ALK, INSR and HCK kinases.
(§2) The murine cell line used is the BaF/3 cell line transformed with BCR/ABL cDNA (BaF/3-p210) or BCR/ABL-T315I mutant (Ba/F3-p210-T315I). These cells are maintained in RPMI/10% fetal calf serum (RPMI/FCS) supplemented with penicillin 50 μg/mL, streptomycin 50 μg/mL and L-glutamine […]. Untransformed BaF/3 cells (Wt-BaF/3) are similarly maintained with the addition of 15% of WEHI conditioned medium as a source of IL3.
(§3) Cells were seeded at a density of 20,000 cells/well into 96-well plates.
(§4) The background control wells to which media with no cells added and the vehicle control wells were included on each plate in triplicate. Cell viability was determined using MTT (Sigma, St. Louis, Mo., USA) and MTS (Promega, Madison, Wis., USA), according to the manufacturer's instructions. Results were analyzed using GraphPad Prism 5.0 (GraphPad Software, San Diego, Calif.) and IC50 values were calculated from cell viability dose-response curves and defined as the concentration of compound needed to reduce cell viability to 50% of a vehicle control (DMSO) (Table 3).

[2] = molecular target: T2, BaF3-BCR/ABL-T315I (Homo sapiens, UniProt P00519, T315I, cells depend on it); test: as above; conditions: 48 hours, cell viability, read-out: BCR/ABL T315I IC50
T2 construct: fused on or other part: P11274 (Breakpoint cluster region protein)
Description: as §1, §2, §3, §4

[3] = molecular target: T3, BaF3-EML4-ALK (Homo sapiens, UniProt Q9UM73); test: as above; conditions: 48 hours, cell viability, read-out: EML4-ALK IC50
T3 construct: fused on or other part: Q9HC35 (Echinoderm microtubule-associated protein-like 4)
T3 sequence (Q9UM73 whole entry, change not shown, the tested form may be a part): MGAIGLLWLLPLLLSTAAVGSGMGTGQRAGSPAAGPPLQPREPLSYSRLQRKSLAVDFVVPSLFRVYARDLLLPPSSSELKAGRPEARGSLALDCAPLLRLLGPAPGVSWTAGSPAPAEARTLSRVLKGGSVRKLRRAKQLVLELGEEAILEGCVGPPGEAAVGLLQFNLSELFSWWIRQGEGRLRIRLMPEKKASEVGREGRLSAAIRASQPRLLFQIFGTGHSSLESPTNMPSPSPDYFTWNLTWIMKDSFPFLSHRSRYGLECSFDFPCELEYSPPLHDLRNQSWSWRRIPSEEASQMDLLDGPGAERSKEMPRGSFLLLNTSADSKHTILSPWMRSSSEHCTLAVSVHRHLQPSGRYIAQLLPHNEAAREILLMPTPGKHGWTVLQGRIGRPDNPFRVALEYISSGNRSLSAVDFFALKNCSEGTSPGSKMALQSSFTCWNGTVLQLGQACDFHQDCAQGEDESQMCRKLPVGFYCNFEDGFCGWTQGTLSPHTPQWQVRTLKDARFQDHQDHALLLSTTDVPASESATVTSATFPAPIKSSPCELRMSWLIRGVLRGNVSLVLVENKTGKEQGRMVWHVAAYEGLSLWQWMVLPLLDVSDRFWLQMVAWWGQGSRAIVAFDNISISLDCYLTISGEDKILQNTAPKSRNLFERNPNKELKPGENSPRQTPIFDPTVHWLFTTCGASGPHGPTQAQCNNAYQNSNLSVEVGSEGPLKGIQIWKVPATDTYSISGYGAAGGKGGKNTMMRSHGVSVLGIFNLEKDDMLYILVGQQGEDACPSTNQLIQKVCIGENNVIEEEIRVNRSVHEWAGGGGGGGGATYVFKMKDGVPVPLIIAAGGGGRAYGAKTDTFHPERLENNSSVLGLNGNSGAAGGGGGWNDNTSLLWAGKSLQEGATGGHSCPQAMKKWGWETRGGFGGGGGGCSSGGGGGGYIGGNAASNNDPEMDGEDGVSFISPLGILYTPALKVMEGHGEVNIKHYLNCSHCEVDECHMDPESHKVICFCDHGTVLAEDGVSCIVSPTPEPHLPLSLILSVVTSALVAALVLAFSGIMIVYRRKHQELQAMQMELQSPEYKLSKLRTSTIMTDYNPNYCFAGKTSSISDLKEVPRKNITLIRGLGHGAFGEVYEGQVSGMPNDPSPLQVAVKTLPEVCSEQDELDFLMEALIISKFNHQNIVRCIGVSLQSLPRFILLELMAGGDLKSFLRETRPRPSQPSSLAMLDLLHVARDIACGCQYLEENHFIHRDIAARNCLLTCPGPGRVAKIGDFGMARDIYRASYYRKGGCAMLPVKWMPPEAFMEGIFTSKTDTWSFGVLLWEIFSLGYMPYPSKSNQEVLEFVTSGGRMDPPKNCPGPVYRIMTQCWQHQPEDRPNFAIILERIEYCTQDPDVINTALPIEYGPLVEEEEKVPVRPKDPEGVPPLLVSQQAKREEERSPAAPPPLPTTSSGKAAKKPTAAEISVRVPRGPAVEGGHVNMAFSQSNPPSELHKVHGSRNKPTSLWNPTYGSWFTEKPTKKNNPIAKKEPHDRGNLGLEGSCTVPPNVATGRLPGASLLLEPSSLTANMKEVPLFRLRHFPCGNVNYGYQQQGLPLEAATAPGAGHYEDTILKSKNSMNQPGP
Description: as §1, §2, §3, §4
(§5) Cell proliferation assays of compounds of the invention against TIE1, LYN, EML4-ALK, INSR and Hck were conducted using identical methods as described above for BCR/ABL, except that BaF3-TEL-TIE1, BaF3-TEL-LYN, BaF3-EML4-ALK, BaF3-TEL-INSR, and BaF3-TEL-HCK are used instead of BaF3-BCR/ABL (Table 3 and 4).

[4] = molecular target: T4, BaF3-TEL-LYN (Homo sapiens, UniProt P07948); test: as above; conditions: 48 hours, cell viability, read-out: tel-LYN IC50
T4 construct: fused on or other part: P41212 (Transcription factor ETV6)
T4 sequence (P07948 whole entry, change not shown, the tested form may be a part): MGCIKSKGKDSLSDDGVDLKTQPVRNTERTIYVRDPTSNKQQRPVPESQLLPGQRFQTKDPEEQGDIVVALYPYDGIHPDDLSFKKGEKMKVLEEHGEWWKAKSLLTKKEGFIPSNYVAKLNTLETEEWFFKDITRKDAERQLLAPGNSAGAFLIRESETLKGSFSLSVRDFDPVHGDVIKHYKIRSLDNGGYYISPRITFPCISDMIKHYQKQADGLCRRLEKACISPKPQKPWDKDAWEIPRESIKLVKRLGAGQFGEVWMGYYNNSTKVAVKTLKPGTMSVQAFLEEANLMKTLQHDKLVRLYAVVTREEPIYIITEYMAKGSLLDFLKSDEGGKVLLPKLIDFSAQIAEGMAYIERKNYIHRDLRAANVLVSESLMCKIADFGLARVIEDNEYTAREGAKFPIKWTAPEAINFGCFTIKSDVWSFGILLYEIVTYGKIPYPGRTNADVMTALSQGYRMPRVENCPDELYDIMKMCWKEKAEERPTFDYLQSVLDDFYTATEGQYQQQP
Description: as §1, §2, §3, §4, §5

[5] = molecular target: T5, BaF3-TEL-TIE1 (Homo sapiens, UniProt P35590); test: as above; conditions: 48 hours, cell viability, read-out: tel-TIE1 IC50
T5 construct: fused on or other part: P41212 (Transcription factor ETV6)
T5 sequence (P35590 whole entry, change not shown, the tested form may be a part): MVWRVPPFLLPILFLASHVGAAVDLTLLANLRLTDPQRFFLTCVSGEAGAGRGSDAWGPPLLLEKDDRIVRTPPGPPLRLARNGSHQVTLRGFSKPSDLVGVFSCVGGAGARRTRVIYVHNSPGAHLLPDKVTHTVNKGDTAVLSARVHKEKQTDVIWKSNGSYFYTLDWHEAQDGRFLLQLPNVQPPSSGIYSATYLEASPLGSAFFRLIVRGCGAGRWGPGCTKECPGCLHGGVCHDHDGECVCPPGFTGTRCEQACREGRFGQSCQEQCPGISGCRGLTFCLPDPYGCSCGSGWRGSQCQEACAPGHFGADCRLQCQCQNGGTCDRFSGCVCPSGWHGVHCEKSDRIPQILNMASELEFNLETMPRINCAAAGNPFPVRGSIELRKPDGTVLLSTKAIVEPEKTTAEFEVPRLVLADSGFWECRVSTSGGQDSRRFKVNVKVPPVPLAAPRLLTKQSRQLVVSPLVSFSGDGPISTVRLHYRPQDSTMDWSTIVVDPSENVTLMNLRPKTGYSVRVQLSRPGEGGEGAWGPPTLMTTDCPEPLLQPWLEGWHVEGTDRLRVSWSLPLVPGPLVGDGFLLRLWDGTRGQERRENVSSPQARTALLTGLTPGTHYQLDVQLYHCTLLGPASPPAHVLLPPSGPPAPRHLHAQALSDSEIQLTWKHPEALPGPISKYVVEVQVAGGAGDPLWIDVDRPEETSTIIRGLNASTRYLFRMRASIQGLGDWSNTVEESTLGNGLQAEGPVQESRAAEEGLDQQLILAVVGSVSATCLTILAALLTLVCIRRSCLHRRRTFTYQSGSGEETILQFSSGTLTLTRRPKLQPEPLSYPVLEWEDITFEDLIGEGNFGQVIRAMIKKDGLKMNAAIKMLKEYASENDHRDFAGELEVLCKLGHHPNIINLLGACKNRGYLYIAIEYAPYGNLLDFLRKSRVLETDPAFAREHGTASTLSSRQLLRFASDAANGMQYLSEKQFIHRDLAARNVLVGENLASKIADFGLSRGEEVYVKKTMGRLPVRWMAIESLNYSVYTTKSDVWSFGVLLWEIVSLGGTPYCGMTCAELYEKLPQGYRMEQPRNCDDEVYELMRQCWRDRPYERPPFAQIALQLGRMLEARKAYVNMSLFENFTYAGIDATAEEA
Description: as §1, §2, §3, §4, §5

[6] = system: BaF3-KRASD12; test: Oncogenic RAS dependent cell proliferation (CellTiter Glo); conditions: Mus musculus, BaF3-KRASD12 cells, 48 hours, read-out: KRas-BaF3 IC50
Description: (§6) The BaF/3 cell line transformed with oncogenic NRAS or KRAS (BaF/3-NRASD12 or BaF/3-KRASD12) and the parental BaF/3 cells were used to measure the abilities of compounds of the invention to suppress RAS transformation (Table 5). Cells were seeded at a density of 5000 cells/well into 96-well plates. […] The background control wells to which media with no cells added and the vehicle control wells were included on each plate in triplicate. Cell viability was determined using CellTiter Glo Assay (Promega) according to manufacture's instruction with a minor modification of diluting 1 part CellTiter Glo reagent to 4 parts phosphate buffered saline (PBS) before use. The luminescence value was read out by an Envision (PerkinElmer).

[7] = system: BaF3-NRASD12; test: as above; conditions: Mus musculus, BaF3-NRASD12 cells, 48 hours, read-out: NRas-BaF3 IC50
Description: as §6

[8] = system: Wt-BaF3; test: Parental Ba/F3 cell proliferation (CellTiter Glo); conditions: Mus musculus, parental BaF/3 cells, 48 hours
Description: as §2, §6

Row | Compound | IC50 [6] | IC50 [7] | GI50 [1] | GI50 [2] | GI50 [3] | GI50 [4] | GI50 [5] | IC50 [8]
1 | Cc1ccc(NC(=O)c2cccc(C(F)(F)F)c2)cc1N1Cc2cnc(NC3CCN(C)CC3)nc2N(C)C1 [IA-1, N-(4-methyl-3-(1-methyl-7-((1-methylpiperidin-4-yl)amino)-1,4-dihydropyrimido[4,5-d]pyrimidin-3(2H)-yl)phenyl)-3-(trifluoromethyl)benzamide] | 10.1 µM | 5.22 µM | 4.28 µM | 4.15 µM | 1.53 µM | ~2.79 µM | 1.75 µM | 8.83 µM
2 | CNc1ncc2c(n1)N(C)CN(c1cc(NC(=O)c3cccc(C(F)(F)F)c3)ccc1C)C2 [IA-3, N-(4-methyl-3-(1-methyl-7-(methylamino)-1,4-dihydropyrimido[4,5-d]pyrimidin-3(2H)-yl)phenyl)-3-(trifluoromethyl)benzamide] | 6.47 µM | 11.5 µM | 1.04 µM | > 10 µM | 6.34 µM | 4.09 µM | 5.47 µM | 12.5 µM
3 | Cc1ccc(Nc2ncc3c(n2)N(C)CN(c2cc(NC(=O)c4cccc(C(F)(F)F)c4)ccc2Cl)C3)cn1 [IC-7, N-(4-chloro-3-(1-methyl-7-((6-methylpyridin-3-yl)amino)-1,4-dihydropyrimido[4,5-d]pyrimidin-3(2H)-yl)phenyl)-3-(trifluoromethyl)benzamide] | – | – | 9 µM | > 10 µM | 9.73 µM | 5.34 µM | 6.85 µM | –
4 | CN1CN(c2ccc(Cl)c(C(F)(F)F)c2)Cc2cnc(Nc3ccc(N4CCOCC4)nc3)nc21 [ID-1, 6-(4-chloro-3-(trifluoromethyl)phenyl)-8-methyl-N-(6-morpholinopyridin-3-yl)-5,6,7,8-tetrahydropyrimido[4,5-d]pyrimidin-2-amine] | – | – | – | > 10 µM | > 10 µM | > 10 µM | > 10 µM | –
5 | CN1CN(c2ccc(F)c(Cl)c2)Cc2cnc(Nc3ccc(N4CCOCC4)nc3)nc21 [ID-2, 6-(3-chloro-4-fluorophenyl)-8-methyl-N-(6-morpholinopyridin-3-yl)-5,6,7,8-tetrahydropyrimido[4,5-d]pyrimidin-2-amine] | – | – | > 10 µM | > 10 µM | > 10 µM | 20.5 µM | 11.8 µM | –
6 | CN1CN(c2ccc(Br)cc2F)Cc2cnc(Nc3ccc(N4CCOCC4)nc3)nc21 [ID-3, 6-(4-bromo-2-fluorophenyl)-8-methyl-N-(6-morpholinopyridin-3-yl)-5,6,7,8-tetrahydropyrimido[4,5-d]pyrimidin-2-amine] | – | – | > 10 µM | > 10 µM | 20 µM | 7.27 µM | 4.55 µM | –
7 | Cc1ccc(C(F)(F)F)cc1N1Cc2cnc(Nc3ccc(N4CCOCC4)nc3)nc2N(C)C1 [ID-4, 8-methyl-6-(2-methyl-5-(trifluoromethyl)phenyl)-N-(6-morpholinopyridin-3-yl)-5,6,7,8-tetrahydropyrimido[4,5-d]pyrimidin-2-amine] | – | – | 1.63 µM | > 10 µM | 8.24 µM | 4.29 µM | 4.43 µM | –
8 | CN1CN(c2cccc(C(F)(F)F)c2)Cc2cnc(Nc3ccc(N4CCOCC4)nc3)nc21 [ID-5, 8-methyl-N-(6-morpholinopyridin-3-yl)-6-(3-(trifluoromethyl)phenyl)-5,6,7,8-tetrahydropyrimido[4,5-d]pyrimidin-2-amine] | – | – | – | > 10 µM | > 10 µM | 15 µM | 6.17 µM | –
9 | Cc1ccc(N)cc1N1Cc2cnc(Nc3ccc(N4CCOCC4)nc3)nc2N(C)C1 [ID-6, 6-(5-amino-2-methylphenyl)-8-methyl-N-(6-morpholinopyridin-3-yl)-5,6,7,8-tetrahydropyrimido[4,5-d]pyrimidin-2-amine] | – | – | 0.353 µM | > 10 µM | > 10 µM | 2.31 µM | 0.809 µM | –

The next lines start with results.

Row | IC50 [6] | IC50 [7] | Compound | GI50 [1] | GI50 [2] | GI50 [3] | GI50 [4] | GI50 [5] | IC50 [8]
10 | 8.33 µM | 9.56 µM | Cc1ccc(NC(=O)c2cccc(C(F)(F)F)c2)cc1N1Cc2cnc(NC3CC3)nc2N(C)C1 [IA-4, N-(3-(7-(cyclopropylamino)-1-methyl-1,4-dihydropyrimido[4,5-d]pyrimidin-3(2H)-yl)-4-methylphenyl)-3-(trifluoromethyl)benzamide] | 0.956 µM | 9.72 µM | 6.79 µM | 1.32 µM | 4.97 µM | 11.3 µM
11 | 3.44 µM | 3.29 µM | Cc1ccc(NC(=O)c2cccc(C(F)(F)F)c2)cc1N1Cc2cnc(NCCN3CCOCC3)nc2N(C)C1 [IA-5, N-(4-methyl-3-(1-methyl-7-((2-morpholinoethyl)amino)-1,4-dihydropyrimido[4,5-d]pyrimidin-3(2H)-yl)phenyl)-3-(trifluoromethyl)benzamide] | 1.72 µM | 2.92 µM | 4.05 µM | 2.14 µM | 3.24 µM | 6.3 µM
12 | 5.53 µM | 5.5 µM | Cc1ccc(NC(=O)c2cccc(C(F)(F)F)c2)cc1N1Cc2cnc(NCCc3c[nH]cn3)nc2N(C)C1 [IA-6, N-(3-(7-((2-(1H-imidazol-4-yl)ethyl)amino)-1-methyl-1,4-dihydropyrimido[4,5-d]pyrimidin-3(2H)-yl)-4-methylphenyl)-3-(trifluoromethyl)benzamide] | 2.22 µM | 4.45 µM | ~3.36 µM | ~3.21 µM | 3.7 µM | 5.14 µM
13 | 8.1 µM | 8.28 µM | Cc1ccc(NC(=O)c2cccc(C(F)(F)F)c2)cc1N1Cc2cnc(N[C@H](C)CO)nc2N(C)C1 [IA-7, (R)—N-(3-(7-((1-hydroxypropan-2-yl)amino)-1-methyl-1,4-dihydropyrimido[4,5-d]pyrimidin-3(2H)-yl)-4-methylphenyl)-3-(trifluoromethyl)benzamide] | 0.665 µM | > 10 µM | 7.47 µM | 4.48 µM | 4.22 µM | 24.4 µM
14 | 7.57 µM | 5.21 µM | Cc1ccc(NC(=O)c2cccc(C(F)(F)F)c2)cc1N1Cc2cnc(N[C@@H](C)CO)nc2N(C)C1 [IA-8, (S)—N-(3-(7-((1-hydroxypropan-2-yl)amino)-1-methyl-1,4-dihydropyrimido[4,5-d]pyrimidin-3(2H)-yl)-4-methylphenyl)-3-(trifluoromethyl)benzamide] | 1.94 µM | > 10 µM | 9.22 µM | 2.5 µM | 3.65 µM | 17.9 µM
15 | 1.46 µM | 1.53 µM | Cc1ccc(NC(=O)c2cccc(C(F)(F)F)c2)cc1N1Cc2cnc(Nc3ccc(N4CCN(C)CC4)nc3)nc2N(C)C1 [IA-14, N-(4-methyl-3-(1-methyl-7-((6-(4-methylpiperazin-1-yl)pyridin-3-yl)amino)-1,4-dihydropyrimido[4,5-d]pyrimidin-3(2H)-yl)phenyl)-3-(trifluoromethyl)benzamide] | – | – | – | – | – | 3.67 µM
16 | 1.69 µM | 1.57 µM | Cc1ccc(Nc2ncc3c(n2)N(C)CN(c2cc(C(=O)Nc4cccc(C(F)(F)F)c4)ccc2C)C3)cn1 [IC-1, 4-methyl-3-(1-methyl-7-((6-methylpyridin-3-yl)amino)-1,4-dihydropyrimido[4,5-d]pyrimidin-3(2H)-yl)-N-(3-(trifluoromethyl)phenyl)benzamide] | 0.00693 µM | 0.196 µM | 1.65 µM | 0.189 µM | 0.0912 µM | 5.36 µM
